Laboratory results taken from PMC7259600, “The crystal structures of Thermus thermophilus CMP kinase complexed with a phosphoryl group acceptor and donor” (PLoS ONE, 2020).

Legend:
[1] = molecular target: T1, ttCMPK (CMP kinase of Thermus thermophilus HB8) (Thermus thermophilus, UniProt Q5SL35); experiment: X-ray crystal structure of the complex (co-crystallisation); type: binding; conditions: closed form 1.5 A (3AKE; AMP-PCP and MgCl2 in drop, no AMP-PCP density); open form 2.2 A (3W8N; SeMet protein, MgCl2); phosphoryl acceptor site
T1 construct: gene cmk; full-length, expressed from pET-11a (NdeI/BamHI) in E. coli BL21(DE3), no tag mentioned; SeMet-labelled protein for the CMP open form; residue numbers up to 209
T1 sequence (Q5SL35 1-208): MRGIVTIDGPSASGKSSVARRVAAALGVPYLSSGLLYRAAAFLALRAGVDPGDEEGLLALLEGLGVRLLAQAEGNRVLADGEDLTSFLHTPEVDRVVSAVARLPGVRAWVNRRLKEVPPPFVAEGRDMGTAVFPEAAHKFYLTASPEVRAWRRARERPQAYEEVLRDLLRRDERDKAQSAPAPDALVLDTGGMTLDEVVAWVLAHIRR

[2] = molecular target: T1, ttCMPK (CMP kinase of Thermus thermophilus HB8); experiment: X-ray crystal structure of the ternary complex (crystal soaked with CMP, ATP and GdCl3); type: binding; conditions: with CDP and Gd3+; 1.6 A, closed form; phosphoryl donor site

SMILES	X-ray crystal structure of the complex (co-crystallisation) [1]	X-ray crystal structure of the ternary complex (crystal soaked with CMP, ATP and) [2]
Nc1ccn([C@@H]2O[C@H](COP(=O)(O)O)[C@@H](O)[C@H]2O)c(=O)n1 [CMP]	3W8N (CMP "open" complex), 3AKE (CMP "closed" complex)	–
Nc1ncnc2c1ncn2[C@@H]1O[C@H](COP(=O)(O)OP(=O)(O)O)[C@@H](O)[C@H]1O [ADP]	–	ADP is recognized by several residues from both the CORE and LID domains
